#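 Protocol summary: plate cells (96-well), add compound at 5 concentrations, incubate 48 h, interpolate endpoints linearly. GI50 = concentration required for 50% inhibition of growth. Definition used: TGI = concentration required for complete inhibition of growth.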
# Tests used:
# Assay in all cases: growth of human tumour cells (NCI), 48 h
# [1] = tested on: HCC-2998 colon
# [2] = tested on: IGROV1 ovarian
# [3] = tested on: LOX IMVI melanoma
# [4] = tested on: SK-MEL-5 melanoma
# [5] = tested on: MOLT-4 leukemia
# [6] = tested on: MCF7 breast
# [7] = tested on: UACC-62 melanoma
# [8] = tested on: SW-620 colon
# [9] = tested on: DU-145 prostate
# [10] = tested on: EKVX NSCLC
# [11] = tested on: A498 renal
# [12] = tested on: BT-549 breast
# [13] = tested on: UACC-257 melanoma
# [14] = tested on: A549 NSCLC
# [15] = tested on: CCRF-CEM leukemia
# [16] = tested on: ACHN renal
# [17] = tested on: CAKI-1 renal
# [18] = tested on: HCT-116 colon
# [19] = tested on: T-47D breast
# [20] = tested on: MALME-3M melanoma
# [21] = tested on: SK-MEL-28 melanoma
# [22] = tested on: SK-OV-3 ovarian
# [23] = tested on: HL-60(TB) leukemia
# [24] = tested on: OVCAR-3 ovarian
# [25] = tested on: SR leukemia
# [26] = tested on: RPMI-8226 leukemia
# [27] = tested on: HT29 colon
# [28] = tested on: HOP-62 NSCLC
# [29] = tested on: KM12 colon
# [30] = tested on: NCI-H23 lung
# [31] = tested on: 786-0 renal
# [32] = tested on: PC-3 prostate
# [33] = tested on: NCI/ADR-RES ovarian
# [34] = tested on: SK-MEL-2 melanoma
# [35] = tested on: HS 578T breast
# [36] = tested on: NCI-H522 lung
# [37] = tested on: NCI-H226 lung
# [38] = tested on: OVCAR-5 ovarian
# [39] = tested on: NCI-H460 lung
# [40] = tested on: M14 melanoma
# [41] = tested on: MDA-MB-435
# [42] = tested on: OVCAR-8 ovarian
# [43] = tested on: K-562 leukemia
# [44] = tested on: HCT-15 colon
# [45] = tested on: TK-10 renal
# [46] = tested on: UO-31 renal
# [47] = tested on: OVCAR-4 ovarian
# [48] = tested on: COLO 205 colon
# [49] = tested on: RXF 393 renal
# [50] = tested on: HOP-92 NSCLC
# [51] = tested on: SN12C renal
# [52] = tested on: MDA-MB-231 breast
smiles,measurement,setting,value
CC(=O)Nc1c(I)c(NC(C)=O)c(I)c(C(=O)O)c1I,GI50,[1],> 100 µM
same,TGI,[1],> 100 µM
same,GI50,[2],> 100 µM
same,TGI,[2],> 100 µM
same,GI50,[3],> 100 µM
same,TGI,[3],> 100 µM
same,GI50,[4],> 100 µM
same,TGI,[4],> 100 µM
same,GI50,[5],> 100 µM
same,TGI,[5],> 100 µM
same,GI50,[6],> 100 µM
same,TGI,[6],> 100 µM
same,GI50,[7],> 100 µM
same,TGI,[7],> 100 µM
same,GI50,[8],> 100 µM
same,TGI,[8],> 100 µM
same,GI50,[9],> 100 µM
same,TGI,[9],> 100 µM
same,GI50,[10],> 100 µM
same,TGI,[10],> 100 µM
same,GI50,[11],> 100 µM
same,TGI,[11],> 100 µM
same,GI50,[12],> 100 µM
same,TGI,[12],> 100 µM
same,GI50,[13],> 100 µM
same,TGI,[13],> 100 µM
same,GI50,[14],> 100 µM
same,TGI,[14],> 100 µM
same,GI50,[15],> 100 µM
same,TGI,[15],> 100 µM
same,GI50,[16],> 100 µM
same,TGI,[16],> 100 µM
same,GI50,[17],> 100 µM
same,TGI,[17],> 100 µM
same,GI50,[18],> 100 µM
same,TGI,[18],> 100 µM
same,GI50,[19],> 100 µM
same,TGI,[19],> 100 µM
same,GI50,[20],> 100 µM
same,TGI,[20],> 100 µM
same,GI50,[21],> 100 µM
same,TGI,[21],> 100 µM
same,GI50,[22],> 100 µM
same,TGI,[22],> 100 µM
same,GI50,[23],> 100 µM
same,TGI,[23],> 100 µM
same,GI50,[24],> 100 µM
same,TGI,[24],> 100 µM
same,GI50,[25],> 100 µM
same,TGI,[25],> 100 µM
same,GI50,[26],> 100 µM
same,TGI,[26],> 100 µM
same,GI50,[27],> 100 µM
same,TGI,[27],> 100 µM
same,GI50,[28],> 100 µM
same,TGI,[28],> 100 µM
same,GI50,[29],> 100 µM
same,TGI,[29],> 100 µM
same,GI50,[30],> 100 µM
same,TGI,[30],> 100 µM
same,GI50,[31],> 100 µM
same,TGI,[31],> 100 µM
same,GI50,[32],> 100 µM
same,TGI,[32],> 100 µM
same,GI50,[33],> 100 µM
same,TGI,[33],> 100 µM
same,GI50,[34],> 100 µM
same,TGI,[34],> 100 µM
same,GI50,[35],> 100 µM
same,TGI,[35],> 100 µM
same,GI50,[36],> 100 µM
same,TGI,[36],> 100 µM
same,GI50,[37],> 100 µM
same,TGI,[37],> 100 µM
same,GI50,[38],> 100 µM
same,TGI,[38],> 100 µM
same,GI50,[39],> 100 µM
same,TGI,[39],> 100 µM
same,GI50,[40],> 100 µM
same,TGI,[40],> 100 µM
same,GI50,[41],> 100 µM
same,TGI,[41],> 100 µM
same,GI50,[42],> 100 µM
same,TGI,[42],> 100 µM
same,GI50,[43],> 100 µM
same,TGI,[43],> 100 µM
same,GI50,[44],> 100 µM
same,TGI,[44],> 100 µM
same,GI50,[45],> 100 µM
same,TGI,[45],> 100 µM
same,GI50,[46],> 100 µM
same,TGI,[46],> 100 µM
same,GI50,[47],> 100 µM
same,TGI,[47],> 100 µM
same,GI50,[48],> 100 µM
same,TGI,[48],> 100 µM
same,GI50,[49],> 100 µM
same,TGI,[49],> 100 µM
same,GI50,[50],> 100 µM
same,TGI,[50],> 100 µM
same,GI50,[51],> 100 µM
same,TGI,[51],> 100 µM
same,GI50,[52],> 100 µM
same,TGI,[52],> 100 µM

# From PubChem BioAssay (NCI)
